From patent US9701664B2, “Fused 1,4-dihydrodioxin derivatives as inhibitors of heat shock transcription factor 1” (Cancer Research Technology Limited, priority 2013, dated 2017)

Tested on: HSP72 in U2OS cells
Assay: Cell-based ELISA (Cellisa) assay, U2OS cells: inhibition of 17-AAG-induced HSP72
Conditions: Homo sapiens; U2OS cells (Examples 1-168)
Procedure: U2OS cells (5-8×10^4 cells/mL) or SK-OV-3 cells (5-8×10^4 cells/mL) were seeded into 96-well plates and incubated at 37° C. for 48 h. Compounds were then added at a range of concentrations and incubated for 1 h before addition of 17-AAG (250 nM). Cells were then incubated for 18 h. The medium was removed washed 2× with PBS and cells were then fixed with fixing solution (4% paraformaldehyde, 0.3% TritonX-100 in PBS) for 30 min at 4° C. The plates were then washed 2× with PBS before blocking with 5% milk for 30 min at 37° C. After washing the plates 4× with 0.1% Tween-20/deionised water, HSP72 antibody (SPA-810, Enzo Life) was added for 1.5 h at 37° C. Following 4× washes, the plates were incubated with europium-labelled anti-mouse antibody (0.6 ug/ml) in Delfia assay buffer (Perkin Elmer) for 1 h at 37° C. After washing the plates, Delfia enhancement solution was added, shaken for 10 min before reading in the Envision plate reader (Perkin-Elmer) with excitation at 340 nm and emission at 615 nm. The plates were washed again before protein determination using the bicinchoninic acid assay (BCA assay, Pierce Biotechnology). The europium counts were normalised for the amount of protein in each well. The 50% inhibitory concentration value of the compound was then calculated.

Cc1ccc(NC(=O)c2ccc3c(c2)OCCO3)cc1NC(=O)c1cnc2cccc(CCO)c2c1 [Example 157, N-(5-(2,3-dihydrobenzo[b][1,4]dioxine-6-carboxamido)-2-methylphenyl)-5-(2-hydroxyethyl)quinoline-3-carboxamide]
IC50: 221 nM

CCC(=O)NCCNc1ccc2cc(C(=O)Nc3cc(NC(=O)c4ccc5c(c4)OCCO5)ccc3C)ccc2n1 [Example 83, N-(5-(2,3-dihydrobenzo[b][1,4]dioxine-6-carboxamido)-2-methylphenyl)-2-((2-propionamidoethyl)amino)quinoline-6-carboxamide]
IC50: 161 nM

Cc1ccc(NC(=O)c2ccc3c(c2)OCCO3)cc1NC(=O)c1ccc2c(c1)CCCCN2 [Example 82, N-(5-(2,3-dihydrobenzo[b][1,4]dioxine-6-carboxamido)-2-methylphenyl)-2,3,4,5-tetrahydro-1H-benzo[b]azepine-7-carboxamide]
IC50: 156 nM

Cc1ccc(NC(=O)c2ccc3c(c2)OCCO3)cc1NC(=O)c1ccc2ncsc2c1 [Example 114, N-(5-(2,3-dihydrobenzo[b][1,4]dioxine-6-carboxamido)-2-methylphenyl)benzo[d]thiazole-6-carboxamide]
IC50: 35 nM

COc1cccc(C(=O)Nc2cc(NC(=O)c3ccc4c(c3)OCCO4)ccc2C)c1 [Example 40, N-(3-(3-methoxybenzamido)-4-methylphenyl)-2,3-dihydrobenzo[b][1,4]dioxine-6-carboxamide]
IC50: 1160 nM

COC(C)c1ccc2cc(C(=O)Nc3cc(NC(=O)c4ccc5c(c4)OCCO5)ccc3C)ccc2n1 (stereo not shown) [Example 153, N-(5-(2,3-dihydrobenzo[b][1,4]dioxine-6-carboxamido)-2-methylphenyl)-2-(1-methoxyethyl)quinoline-6-carboxamide]
IC50: 140 nM

Cc1ccc(NC(=O)c2ccc3c(c2)OCCO3)cc1NC(=O)c1ccnc(N2CCOCC2)c1 [Example 98, N-(5-(2,3-dihydrobenzo[b][1,4]dioxine-6-carboxamido)-2-methylphenyl)-2-morpholinoisonicotinamide]
IC50: 2660 nM

Cc1ccc(NC(=O)c2ccc3c(c2)OCCO3)cc1NC(=O)c1ccc2c(ccc[n+]2[O-])c1 [Example 23, 6-((5-(2,3-dihydrobenzo[b][1,4]dioxine-6-carboxamido)-2-methylphenyl)carbamoyl)quinoline 1-oxide]
IC50: 161 nM

Cc1ccc(NC(=O)c2ccc3c(c2)OCCO3)cc1NC(=O)c1ccc2c(c1)CC[C@H](C)N2 [Example 154, (S)—N-(5-(2,3-dihydrobenzo[b][1,4]dioxine-6-carboxamido)-2-methylphenyl)-2-methyl-1,2,3,4-tetrahydroquinoline-6-carboxamide]
IC50: 145 nM

Cc1ccc2cc(C(=O)Nc3cc(NC(=O)c4ccc5c(c4)OCCCO5)ccc3C)ccc2n1 [Example 132, N-(5-(3,4-dihydro-2H-benzo[b][1,4]dioxepine-7-carboxamido)-2-methylphenyl)-2-methylquinoline-6-carboxamide]
IC50: 226 nM

COCCOc1cc(C(=O)Nc2cc(NC(=O)c3ccc4c(c3)OCCO4)ccc2C)cc2cccnc12 [Example 160, N-(5-(2,3-dihydrobenzo[b][1,4]dioxine-6-carboxamido)-2-methylphenyl)-8-(2-methoxyethoxy)quinoline-6-carboxamide]
IC50: 383 nM

Cc1ccc(NC(=O)c2ccc3c(c2)OCCO3)cc1NC(=O)c1ccc2c(c1)CCN(C(=O)OC(C)(C)C)C2 [Example 31, tert-butyl 6-((5-(2,3-dihydrobenzo[b][1,4]dioxine-6-carboxamido)-2-methylphenyl)carbamoyl)-3,4-dihydroisoquinoline-2(1H)-carboxylate]
IC50: 545 nM

CCc1ccc2cc(C(=O)Nc3cc(NC(=O)c4ccc5c(c4)OCCO5)ccc3C)ccc2n1 [Example 77, N-(5-(2,3-dihydrobenzo[b][1,4]dioxine-6-carboxamido)-2-methylphenyl)-2-ethylquinoline-6-carboxamide]
IC50: 26 nM
